In US11442059B2, “Method for treating a chronic itch condition by administering small molecule MrgprX4 antagonists” (The Johns Hopkins University, priority 2017, dated 2022):

Columns and labels:
mouse Mrgpra1 = molecular target: T1, mouse Mrgpra1 (Mus musculus, UniProt Q91WW5); experiment: Ca2+ imaging / EC50 determination in HEK293 cells expressing Mrgpra1; type: cell-based
T1 construct: expressed in transfected cells; host or cells: HEK293
T1 sequence (Q91WW5 1-304): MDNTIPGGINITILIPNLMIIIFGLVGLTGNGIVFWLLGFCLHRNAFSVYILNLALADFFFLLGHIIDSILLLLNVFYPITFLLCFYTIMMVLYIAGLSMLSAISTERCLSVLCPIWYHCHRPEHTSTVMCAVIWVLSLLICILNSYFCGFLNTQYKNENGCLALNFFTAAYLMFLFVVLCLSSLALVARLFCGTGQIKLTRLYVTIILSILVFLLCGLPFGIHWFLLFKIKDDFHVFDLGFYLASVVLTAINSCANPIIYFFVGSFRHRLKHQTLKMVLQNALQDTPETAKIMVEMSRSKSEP
Method: Lamotrigine (LTG), allopurinol, carbamazepine and oxcarbazepine (all from Sigma) were prepared fresh on the day of the experiment. These drugs were dissolved into dimethyl sulfoxide (DMSO) first, and then were diluted at least 10000× into calcium imaging buffer before use. The final concentrations of drugs for each experiment were indicated in the corresponding figure legend.
(§1) In initial experiments, HEK293 cells were plated on 100 μg/ml poly-D-lysine coated glass cover slips, and transiently transfected with vector containing Mrgprs gene, after 24-48 hours of culture, cells were loaded with Fura 2-acetomethoxy ester calcium indicator (0.5 μM, Molecular Probes) along with pluronic F-127 dispersing agent (0.1%, Molecular Probes) for 30 minutes in the dark at 37° C., then washed with calcium imaging buffer (CIB; NaCl 125 mM, KCl 3 mM, CaCl2 2.5 mM, MgCl2 0.6 mM, HEPES 10 mM, glucose 20 mM, NaHCO3 1.2 mM, sucrose 20 mM, brought to pH 7.4 with NaOH). Drugs were added to Fura 2-loaded cells and intracellular free calcium was measured using 340 nm and 380 nm excitation wavelengths with emission measured at 520 nm with a microscope based imaging system (Nikon Eclipse TE200). Changes in emission fluorescence ratios at 340/380 nm excitation were continuously monitored at 1 second intervals. Later, experiments were performed using Mrgpra1-GFP, Mrgprc11-GFP and MRGPRX4-GFP stable cell lines to confirm the findings obtained from the transiently expressing cells.
Mrgpra1 or both wild-type and mutant MRGPRX4 stably expressed HEK cells were plated overnight in 100 μl culture media on 96-well plates. […] After 1 hour of incubation at 37° C., cells were allowed to recover for 10 minutes in the dark at room temperature prior to performing intracellular calcium mobilization assay in a FLEXSTATION® multi-mode plate reader (Molecular Devices). […] Responses were determined by subtracting the minimum signal (at the basal level before adding the drug) from the maximum signal (obtained after stimulating with the drug). […]

Mrgpra1 knockout mice = experiment: Dendritic cell adoptive transfer into Mrgpra1 KO mice with daily LTG; type: in vivo, mouse; conditions: Mrgpra1 KO animals who received WT dendritic cells; 7-10 days of LTG 50 mg kg−1
Method: Spleens from naïve 129S1 WT mice or Mrgpra1−/− mice were aseptically removed and DCs were isolated using mouse Pan Dendritic Cell isolation kit (Miltenyi Biotec) according to the manufacturer's manual. Briefly, single cell suspensions from spleen were generated by collagenase D/DNase I digestion as above mentioned. Then, cocktail of biotin-conjugated antibodies against non-dendritic cells followed by anti-biotin magnetic microbeads were added to the cell suspensions. Dendritic cells were separated from bead labelled non-dendritic cells using LS column. Dendritic cells freshly isolated either from WT mice or KO animals suspended in 200 μl Hanks' Balanced Salt Solution (HBSS) were injected intravenously (tail vein) into the naïve male Mrgpra1 knockout mice (2×10^6 cells/mouse) one day before starting daily LTG (50 mg kg^−1 body weight) administration.

human dendritic cells = experiment: Calcium imaging of human dendritic cells; type: cell-based
Method: as §1
Human Peripheral Blood Dendritic Cells from four different donors were purchased from Lonza (cc-2701) and […] Technologies (70041). […]

MRGPRX4-GFP = MRGPRX4-GFP (Homo sapiens, UniProt Q96LA9); experiment: Receptor internalization assay, MRGPRX4-GFP HEK293 cells; type: cell-based; conditions: 37° C.
Chain of MRGPRX4-GFP (Q96LA9 whole entry, the tested form may be a part): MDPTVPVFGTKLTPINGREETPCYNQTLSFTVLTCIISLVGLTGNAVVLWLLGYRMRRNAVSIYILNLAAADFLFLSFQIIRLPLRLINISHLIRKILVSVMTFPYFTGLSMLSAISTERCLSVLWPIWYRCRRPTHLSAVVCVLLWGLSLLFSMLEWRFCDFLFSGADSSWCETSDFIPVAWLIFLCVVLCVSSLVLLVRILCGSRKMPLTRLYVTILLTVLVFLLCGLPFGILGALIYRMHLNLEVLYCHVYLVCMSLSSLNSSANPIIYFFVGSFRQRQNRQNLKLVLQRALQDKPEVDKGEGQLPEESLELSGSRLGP
Method: To label the drug with red-fluorescent dye, […] of LTG was dissolved in 50 μl dimethyformamide (DMF) first, and further diluted with 450 μl reaction buffer (0.1M sodium bicarbonate buffer, pH9.0) to obtain LTG at a concentration of 7.8 mM. Then, 50 μl of Texas-red-conjugated sulfonyl chloride (Thermo Fisher Scientific, T1905) dissolved in DMF at 10 mg ml−1 was slowly added into LTG solution. The reaction was incubated at 4° C. for 1 hour with continuous stirring. The mixture was then diluted into cell culture medium for further use. LTG labeled with Texas Red dye can create bright red-fluorescence with excitation/emission maxima ˜595/615 nm. HEK293 cells stably expressing Mrgpra1-GFP, Mrgprc11-GFP or MRGPRX4-GFP fusion protein were grown in DMEM with 10% FBS. After 4-6 hours of serum starvation, cells were treated with either medium, dye alone, unlabeled LTG or Texas-Red-labeled LTG at 37° C. for 15 or 60 min. Cells were washed with PBS and fixed with 4% paraformaldehyde in PBS. The subcellular localization of Mrgpr-GFP or drug was visualized under a confocal fluorescence microscope with a 400× magnification (Zeiss LSM 700).

SMILES: Nc1nnc(-c2cccc(Cl)c2Cl)c(N)n1 [LTG, Lamotrigine]
- EC50 (mouse Mrgpra1; HEK293 cells, Ca2+ assay): ~30 µM
- activation of mouse Mrgpra1 (Ca2+ imaging) (mouse Mrgpra1; Mrgprs individually expressed in HEK293 cells): specifically activated
- animals developing SJS-like eye manifestation (Mrgpra1 knockout mice): 64%
- cells activated (Ca2+ imaging) (human dendritic cells): about 5%
- internalization of MRGPRX4-GFP (MRGPRX4-GFP): can induce the internalization
